Common to all, as to experiment: inhibition of tumour cell growth, NCI panel, 48 h
The subject of assay [1] is ACHN renal.
Assay [2] concerns DU-145 prostate.
For assay [3], the system named is HOP-92 NSCLC.
Assay [4] deals with IGROV1 ovarian.
Assay [5] deals with MALME-3M melanoma.
Assay [6] deals with NCI-H460 lung.
The subject of assay [7] is OVCAR-4 ovarian.
Assay [8] deals with SK-MEL-2 melanoma.
For assay [9], the system named is SNB-19 CNS.
Assay [10] relates to SNB-75 CNS.

Each structure is given as a SMILES string.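 Tested at 5 concentrations; 48 h exposure; 96-well plates; endpoints linearly interpolated, else capped at highest concentration. At the GI50, growth is halved. TGI: concentration producing complete growth inhibition.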

Experimental findings from PubChem BioAssay (NCI) are described below.

Consider `COC(=O)c1n[nH]c(C)c1N=NN(C)CCC#N`, for which the TGI in assay [1] came to 25.4 µM; in [2], 51.6 µM; in assay [3], 35 µM; in assay [4], 93.6 µM; in assay [5], 34.6 µM; in assay [6], 36.5 µM. Moreover, the TGI in assay [7] was 30.7 µM; in assay [8], 61.9 µM; in assay [9], 87 µM; in assay [10], 33 µM.

`CC(C)(Br)C(=O)N1CCN(C(c2ccccc2)c2ccccc2)CC1`: the TGI in assay [1], in assay [2], in assay [3], in assay [4], in assay [5] and in assay [6] was above 100 µM in each case. For the same compound, the TGI in [7], in assay [8], in assay [9] and in [10] was above 100 µM throughout.

As to `CC(C)c1[nH]nc(C(N)=O)c1N=NN(C)C`, the TGI in assay [1], in assay [2], in assay [3], in assay [4], in assay [5] and in assay [6] was above 100 µM each time. In addition, the TGI in assay [7], in assay [8], in [9] and in [10] was above 100 µM throughout.

`CC(N)C(Cc1ccc(Cl)cc1)c1ccc(Cl)cc1` (stereo not drawn): the GI50 was 4.85 µM in assay [1]; 12.5 µM in assay [2]; 5.59 µM in [3]; 4.89 µM in assay [4]; 8.17 µM in assay [5]; 5.55 µM in assay [6]. Also, the GI50 in [7] was 11.4 µM; in assay [8], 13 µM; in [9], 14.1 µM; in assay [10], 3.76 µM. The TGI came out at 18.5 µM in [1]; 25.7 µM in [2]; 19.9 µM in assay [3]; 18.7 µM in [4]; 22.1 µM in assay [5]; 18.5 µM in assay [6]. Also, the TGI in assay [7] worked out at 25.7 µM; in assay [8] it was 27 µM; in [9] it was 29.5 µM; in [10], 18.3 µM.

On to `CCN(Cc1ccc(C)cc1)c1ccc(CO)c(Cl)c1`, for which the GI50 is 10.1 µM in [1]; 12.7 µM in assay [2]; 1.86 µM in [3]; 0.108 µM in assay [4]; 15.5 µM in [5]; 0.306 µM in [6]. Besides, the GI50 is 0.274 µM in assay [7], 2.2 µM in [8], 14.5 µM in assay [9] and 4.8 µM in assay [10]. Besides, the TGI in assay [1] turned out to be 23.2 µM; in assay [2] it was 27.4 µM; in assay [3], 15.3 µM; in assay [4] it was 0.938 µM; in assay [5] it was 32.2 µM; in assay [6] it was 11.7 µM. The TGI in assay [7] turned out to be 4.11 µM; in assay [8] it was 16.2 µM; in [9] it was 31.1 µM; in assay [10], 20.9 µM.

As for `Cc1cc2nc3c4cc(O)ccc4n(CCN(C)C)c3nc2cc1C`, the GI50 in [1] is 0.408 µM; in assay [2] it was 1.03 µM; in assay [3], 0.287 µM; in assay [4] it was 0.474 µM; in assay [5], 1.14 µM; in assay [6], 0.468 µM. The GI50 was 1.34 µM in assay [7], 1.65 µM in assay [8], 0.609 µM in [9] and 0.229 µM in assay [10]. Further, the TGI stood at 10.3 µM in assay [1]; 4.31 µM in [2]; 2.62 µM in [3]; 2.89 µM in [4]; 2.41 µM in assay [5]; 1.99 µM in assay [6]. For the same compound, the TGI is 3.63 µM in assay [7], 3.69 µM in [8], 12.3 µM in assay [9] and 2.92 µM in assay [10].

Turning to `COc1ccc2c(c1OC)C[C@@H]1c3c(cc4c(c3-2)OCO4)CCN1C`, the TGI in [1] is above 100 µM; in assay [2] it was above 100 µM; in assay [3], 68.1 µM; in [4], 99.1 µM; in assay [5] it was above 100 µM; in [6], 91.4 µM. The TGI is above 100 µM in assay [7], 88.7 µM in assay [8], above 100 µM in assay [9] and 52.5 µM in [10].

Turning to `COC[C@@H](N=C1NC(=O)/C(=C/c2ccc3ncccc3c2)S1)c1ccccc1`, the GI50 in assay [1] is 9.24 µM; in assay [2] it was 12 µM; in [3], 5.07 µM; in assay [4] it was 12.9 µM; in assay [5], above 23.1 µM; in assay [6] it was 8 µM. Further, the GI50 was 5.16 µM in assay [7], 8.19 µM in assay [8], 8.82 µM in assay [9] and 4.83 µM in assay [10]. Besides, the TGI in assay [1] is above 25 µM; in assay [2], above 25 µM; in [3] it was above 21.1 µM; in assay [4], above 25 µM; in [5], above 25 µM; in [6] it was above 25 µM. Besides, the TGI was above 25 µM in assay [7], 17.2 µM in assay [8], above 25 µM in assay [9] and above 22 µM in assay [10].

For `CC(=O)O[C@H]1C(=O)[C@@]2(C)C(C(OC(=O)c3ccccc3)[C@]3(O)C[C@H](OC(=O)C(OC(=O)CCCC(=O)NCCCN(C)C)C(NC(=O)c4ccccc4)c4ccccc4)C(C)=C1C3(C)C)C1(OC(C)=O)COC1C[C@@H]2O` (stereo partly drawn), the TGI in assay [1] is above 100 µM; in assay [2] it was 0.0666 µM; in assay [3], 37.2 µM; in [4], 59 µM; in [5], 20.8 µM; in [6], 8.71 µM. Besides, the TGI in assay [7] is above 87.9 µM; in assay [8] it was 24.3 µM; in assay [9], above 100 µM; in assay [10] it was 0.021 µM.

On to `COc1cc(/C=C\c2cc(OC)c(OC)c(OC)c2)cc(N/C=C\C(=O)c2ccc(OC(F)(F)F)cc2)c1OC`, for which the GI50 in [1] is 5.56 µM; in assay [2], 4.11 µM; in assay [3] it was 12.6 µM; in assay [4], 7.06 µM; in assay [5] it was 14.7 µM; in assay [6] it was 3.34 µM. The GI50 was 7.54 µM in assay [7], 4.97 µM in assay [9] and 2.65 µM in [10]. Also, the TGI was above 100 µM in [1]; above 100 µM in assay [2]; above 100 µM in [3]; above 100 µM in assay [4]; above 100 µM in assay [5]; 36.4 µM in assay [6]. Besides, the results for the TGI in assay [7], in [9] and in assay [10] were above 100 µM, above 100 µM and 24 µM, respectively.
